Results from US20240018158A1, “BRM TARGETING COMPOUNDS AND ASSOCIATED METHODS OF USE” (Prelude Therapeutics Incorporated, priority 2020, published 2024).

Key:
[1] = tested on: NCIH1693 cells; assay: Cell proliferation assay (ATPlite) in NCIH1693 cells; assay type: cell-based; details: H1693 cells, day 4; read-out: IC50 (PRO_H1693) antiproliferation potency
Protocol: One thousand NCIH1693 or NCIH1703 cells per well were seeded in 96 well plate and incubated at 37° C. for 5 hrs. A series of three-fold dilution of compounds from 10 mM stock concentration were added to the cells by using digital Dispenser D300-Tecan, keeping highest concentration 10 μM and normalizing with DMSO at the highest dispensed volume). Cells incubated with DMSO was used as a vehicle control. After compound treatment plates were incubated at 37° C. for 4 days and cell viability was measured by measuring ATP content from the cell lysate using ATPlite Luminescence assay system (PerkinElmer Cat. no #6016941). Percentage of viable cells, relative to DMSO vehicle control and maximum inhibition, was calculated and plotted in Graphpad Prism ([Inhibitor] vs. normalized response−Variable slope) to determine cell proliferation IC50 values on day 4.

[2] = molecular target: bromo domain of SMARCA4 protein (Homo sapiens (Human), UniProt P40337+P51532); assay: SMARCA4 bromodomain ternary binding TR-FRET assay (with VCB); details: with saturating VCB (5 μM); read-out: IC50 (SM4_T) ternary binding potency in SMARCA4 FRET assay
Sequence of bromo domain of SMARCA4 protein (P51532 whole entry, looked up, the tested form may be a part): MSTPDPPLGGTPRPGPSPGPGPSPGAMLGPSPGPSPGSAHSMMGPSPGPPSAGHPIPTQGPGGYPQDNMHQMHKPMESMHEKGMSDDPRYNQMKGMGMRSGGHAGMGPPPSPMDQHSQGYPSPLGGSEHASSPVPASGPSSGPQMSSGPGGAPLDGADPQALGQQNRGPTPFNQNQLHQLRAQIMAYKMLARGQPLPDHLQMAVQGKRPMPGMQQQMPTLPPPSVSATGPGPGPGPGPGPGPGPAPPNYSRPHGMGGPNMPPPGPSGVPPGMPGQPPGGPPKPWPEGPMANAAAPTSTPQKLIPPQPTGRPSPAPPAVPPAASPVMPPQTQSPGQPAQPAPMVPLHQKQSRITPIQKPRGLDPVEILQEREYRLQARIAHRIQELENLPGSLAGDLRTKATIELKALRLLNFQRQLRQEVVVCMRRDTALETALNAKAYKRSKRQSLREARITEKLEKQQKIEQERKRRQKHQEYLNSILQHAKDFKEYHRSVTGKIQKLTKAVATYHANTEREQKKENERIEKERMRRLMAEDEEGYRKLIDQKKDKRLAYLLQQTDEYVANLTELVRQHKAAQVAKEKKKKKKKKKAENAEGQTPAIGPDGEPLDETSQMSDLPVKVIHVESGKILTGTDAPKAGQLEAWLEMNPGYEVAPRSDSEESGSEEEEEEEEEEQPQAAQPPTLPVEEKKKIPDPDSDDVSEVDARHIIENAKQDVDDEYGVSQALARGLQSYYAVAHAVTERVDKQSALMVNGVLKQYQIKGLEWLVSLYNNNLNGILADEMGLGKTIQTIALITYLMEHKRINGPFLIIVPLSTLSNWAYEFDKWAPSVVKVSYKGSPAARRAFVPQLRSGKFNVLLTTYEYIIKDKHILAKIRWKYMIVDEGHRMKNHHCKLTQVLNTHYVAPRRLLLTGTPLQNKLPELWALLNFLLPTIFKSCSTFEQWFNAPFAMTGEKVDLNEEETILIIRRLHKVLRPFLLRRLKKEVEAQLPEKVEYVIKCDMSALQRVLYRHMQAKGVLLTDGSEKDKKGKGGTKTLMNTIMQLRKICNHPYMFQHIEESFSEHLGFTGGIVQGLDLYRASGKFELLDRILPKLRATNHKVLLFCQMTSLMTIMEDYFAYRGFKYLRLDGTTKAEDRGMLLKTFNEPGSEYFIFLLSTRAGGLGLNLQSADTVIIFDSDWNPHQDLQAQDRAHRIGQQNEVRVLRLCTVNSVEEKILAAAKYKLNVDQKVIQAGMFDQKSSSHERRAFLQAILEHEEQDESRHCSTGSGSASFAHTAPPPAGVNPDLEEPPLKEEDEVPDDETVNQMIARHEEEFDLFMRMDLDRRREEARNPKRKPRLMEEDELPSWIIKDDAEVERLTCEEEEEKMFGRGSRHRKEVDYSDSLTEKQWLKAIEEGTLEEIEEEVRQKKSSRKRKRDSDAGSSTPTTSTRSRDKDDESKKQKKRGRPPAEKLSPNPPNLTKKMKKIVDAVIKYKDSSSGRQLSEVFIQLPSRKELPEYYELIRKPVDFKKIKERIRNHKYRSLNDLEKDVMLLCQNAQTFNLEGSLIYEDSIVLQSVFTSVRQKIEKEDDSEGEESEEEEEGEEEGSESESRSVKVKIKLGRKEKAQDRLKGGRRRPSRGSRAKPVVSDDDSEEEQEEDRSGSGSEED
Sequence of bromo domain of SMARCA4 protein (P40337 whole entry, looked up, the tested form may be a part): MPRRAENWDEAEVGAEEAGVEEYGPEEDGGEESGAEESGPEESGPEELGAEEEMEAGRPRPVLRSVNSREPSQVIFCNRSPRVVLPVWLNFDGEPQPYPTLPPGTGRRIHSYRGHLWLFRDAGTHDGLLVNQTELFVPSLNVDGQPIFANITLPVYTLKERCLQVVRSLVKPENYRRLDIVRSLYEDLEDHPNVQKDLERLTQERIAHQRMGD
Sequence of bromo domain of SMARCA4 protein (Q15370 whole entry partner, looked up, the tested form may be a part): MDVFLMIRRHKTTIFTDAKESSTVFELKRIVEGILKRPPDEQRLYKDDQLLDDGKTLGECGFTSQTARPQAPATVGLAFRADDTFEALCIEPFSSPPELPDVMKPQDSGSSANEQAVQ
Sequence of bromo domain of SMARCA4 protein (Q15369 whole entry partner, looked up, the tested form may be a part): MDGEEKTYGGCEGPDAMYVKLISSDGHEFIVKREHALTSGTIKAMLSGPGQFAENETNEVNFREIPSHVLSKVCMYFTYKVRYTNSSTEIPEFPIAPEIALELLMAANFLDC
Protocol: Recombinant bromo domain of SMARCA4 protein, was purchased from Active Motif (31401). The inhibitory activity of compounds was evaluated in vitro using TR-FRET assay with white 384-well low volume microplate (PerkinElmer ProxiPlate Plus), in which the compound competes the same binding site with the ligand, and thus lead to dose-dependent TR-FRET signal reduction. The cooperativity of the compounds for ternary complex formation with E3 ligase was evaluated in the absence or presence of saturating concentrations of VCB. Testing compounds were dissolved in DMSO at 10 mM and tested in 9-point IC50 mode. The assay mixture was prepared by mixing SMARCA4 (20 nM final), biotinylated probe (25 nM final), and assay buffer or VCB (5 μM) in 1×AlphaLISA Epigenetics Buffer (PerkinElmer AL008F) with 1 mM TCEP. The compounds of interest in DMSO were added to each well in 3-fold serial dilution by dispenser (TECAN D300E). and incubate for 20 minutes at room temperature before addition of detection reagents, Lance Eu W1024 anti-6×His (0.6 nM final, PerkinElmer AD0110) and Streptavidin Surelight APC (6 nM final, PerkinElmer CR130-100). The plate was then sealed and further incubated at 4° C. overnight in dark, and then was read by Envision multimode plate reader (PerkinElmer, 2102-0010). The ratio of florescence signal at 665/620 was used in data analysis. Percentage inhibition was calculated by % inhibition=100×(FDMSO-F)/(FDMSO-FPC), in which FDMSO is DMSO control, and FPC is positive control. IC50 values were determined from dose response curve by fitting the percent inhibition against compound concentration using GraphPad Prism software.

[3] = molecular target: SMARCA2 (Homo sapiens (Human), UniProt P51531); assay: In Cell Western SMARCA2 degradation in NCIH1693 cells; assay type: cell-based; details: for DC50: read-out: DC50 (SM2_H1693) SMARCA2 degradation potency; for Dmax: NCI-H1693, overnight, read-out: Dmax % (SM2_H1693) maximum SMARCA2 degradation within the concentrations tested
Sequence of SMARCA2 (P51531 whole entry): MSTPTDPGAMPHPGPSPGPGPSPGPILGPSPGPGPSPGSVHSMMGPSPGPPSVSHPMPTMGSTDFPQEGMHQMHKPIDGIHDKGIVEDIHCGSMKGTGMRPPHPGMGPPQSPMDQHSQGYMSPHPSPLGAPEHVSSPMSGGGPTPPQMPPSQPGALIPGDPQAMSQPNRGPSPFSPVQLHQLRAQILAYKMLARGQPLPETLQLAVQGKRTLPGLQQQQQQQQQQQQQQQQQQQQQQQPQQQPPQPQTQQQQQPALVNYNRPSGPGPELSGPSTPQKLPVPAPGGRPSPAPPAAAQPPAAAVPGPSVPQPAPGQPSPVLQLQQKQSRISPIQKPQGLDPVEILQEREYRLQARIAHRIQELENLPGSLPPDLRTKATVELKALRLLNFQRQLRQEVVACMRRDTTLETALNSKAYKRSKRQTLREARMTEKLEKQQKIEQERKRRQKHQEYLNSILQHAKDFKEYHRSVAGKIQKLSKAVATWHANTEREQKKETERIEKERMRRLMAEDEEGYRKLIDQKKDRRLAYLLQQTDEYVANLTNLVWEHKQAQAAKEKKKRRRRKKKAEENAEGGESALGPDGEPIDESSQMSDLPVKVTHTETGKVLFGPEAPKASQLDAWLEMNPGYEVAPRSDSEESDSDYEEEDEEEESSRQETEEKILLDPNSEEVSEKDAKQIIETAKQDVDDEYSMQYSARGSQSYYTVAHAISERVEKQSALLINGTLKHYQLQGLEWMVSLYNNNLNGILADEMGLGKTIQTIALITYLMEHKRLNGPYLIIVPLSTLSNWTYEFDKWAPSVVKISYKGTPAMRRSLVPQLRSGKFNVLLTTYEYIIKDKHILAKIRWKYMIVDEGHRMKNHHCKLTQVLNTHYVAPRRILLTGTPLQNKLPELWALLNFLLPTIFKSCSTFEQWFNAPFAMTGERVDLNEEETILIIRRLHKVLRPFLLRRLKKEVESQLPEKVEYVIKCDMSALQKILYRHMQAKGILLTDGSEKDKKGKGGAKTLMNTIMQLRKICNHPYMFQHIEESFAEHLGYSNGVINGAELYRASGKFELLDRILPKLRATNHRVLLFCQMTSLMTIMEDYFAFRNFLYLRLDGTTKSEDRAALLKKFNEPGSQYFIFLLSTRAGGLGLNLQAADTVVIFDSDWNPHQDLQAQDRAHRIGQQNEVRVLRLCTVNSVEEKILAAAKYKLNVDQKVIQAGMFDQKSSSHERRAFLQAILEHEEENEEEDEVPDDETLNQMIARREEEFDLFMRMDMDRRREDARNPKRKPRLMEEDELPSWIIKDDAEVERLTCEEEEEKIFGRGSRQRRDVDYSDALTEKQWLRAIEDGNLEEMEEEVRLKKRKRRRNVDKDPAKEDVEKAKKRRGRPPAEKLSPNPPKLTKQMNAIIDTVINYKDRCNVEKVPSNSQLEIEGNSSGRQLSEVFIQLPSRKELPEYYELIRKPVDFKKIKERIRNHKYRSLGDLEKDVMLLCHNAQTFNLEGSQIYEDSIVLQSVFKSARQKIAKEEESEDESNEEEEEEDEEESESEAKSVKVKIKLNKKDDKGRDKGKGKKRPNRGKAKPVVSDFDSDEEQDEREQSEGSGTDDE
Protocol: Compound titration and cell culture: Compounds were dissolved in DMSO to make 10 mM stock and 3-fold series dilutions were further conducted keeping the highest concentration 10 μM. NCIH1693 and NCIH520 cells were maintained in PRMI 1640 medium (Corning Cellgro, Catalog #:10-040-CV) supplemented with 10% v/v FBS (GE Healthcare, Catalog #: SH30910.03) by splitting 1:3 twice a week.
To determine SMACRA2 and SMARCA4 protein degradation DC50 values in NCIH1693 and NCIH520 cells by In Cell Western (ICW) analysis. Cells were trypsinized and 30 thousand cells/well were seeded into 384-well plates and were allowed to grow for 5 hours at 37° C. Eight-point, 3-fold serial dilutions of compounds from 10 mM stocks were added to the cells (using digital Dispenser D300-Tecan, keeping highest concentration 10 μM and normalizing with DMSO at the highest dispensed volume). Plates were incubated at 37° C. for overnight (maximum 18 hours). Cells incubated with DMSO was used as a vehicle control.
To perform In Cell Western, medium was removed from all the wells leaving cells attached to the surface. After removing the medium, cells were fixed within the plates with 40 μL of 4% formaldehyde by incubating at room temperature for 30 minutes, and then permeabilized with wash buffer (1×PBS with 0.1% Triton X-100) by washing the plate 5 times with 50 μL/well. Before labeling with primary antibodies, cells were blocked with 30 μL/well of blocking buffer (Licor Odyssey blocking buffer PBS #927-40000) for 30 minutes at room temperature. To measure SMARCA2 or SMARCA4 proteins, cells were labeled with 20 μL/well of anti SMARCA2 or SMACRA4 antibodies (Cell Signaling BRM #11966S 1:1000, Cell Signaling BRG #49360S 1:1000) diluted in Li-Cor Odyssey blocking buffer-PBS #927-40000, followed by overnight incubation at 4° C.
The next day, plates were washed 5×5 minutes with 50 μL/well of washing buffer to remove all the excess primary antibody and then 20 μL from a mixture of secondary antibody and fluorescent DNA specific dye (Goat anti rabbit 1:500 IRDye-800CW #92632211, and DRAQ5™ 1:2000-#ab108410) was added to each well. Plates were incubated for 1 hour at room temperature with gentle rocking. Cells were washed 5 times with 50 μL/well wash buffer, followed by one last wash with DI water, followed by 10 mins drying at 37° C. oven before scanning. Plates were scanned using Li-Cor Odyssey CLx imaging system to acquire integrated intensities at 700 nm and 800 nm. SMARCA signals were normalized to total cell count and then these normalized values were used to calculate the percent degradation relative to DMSO control and maximum inhibition. DC50s were calculated by using the GraphPad Prism4 program based on sigmoidal dose response equation ([Inhibitor] vs. normalized response−Variable slope).

Row | IC50 [2] [nM] | DC50 ([3]; H1693 cells, overnight) [nM] | Dmax [3] [%] | Dmax % (SM2_H1693) maximum SMARCA2 degradation within the concentrations tested ([3]; H1693 cells, overnight) | Compound | IC50 [1] [nM]
1 | 100 to 1000 | 100 to 1000 | > 75 | – | Cc1scnc1-c1ccc(CNC(=O)[C@@H]2C[C@@H](O)CN2C(=O)[C@@H](NC(=O)CN2CCN3c4cc(-c5ccccc5O)nnc4NCC3C2)C(C)(C)C)cc1 (single isomer, unassigned) [Example 2a] | 100 to 1000
2 | < 100 | 1000 to 10000 | – | A (A = Dmax > 75%) | Cc1scnc1-c1ccc(CNC(=O)[C@@H]2C[C@@H](O)CN2C(=O)[C@@H](NC(=O)CN2CCN3c4cc(-c5ccccc5O)nnc4NCC3C2)C(C)(C)C)cc1 (single isomer, unassigned) [Example 2b] | 1000 to 10000
3 | < 100 | < 100 | > 75 | – | Cc1ncsc1-c1ccc([C@H](C)NC(=O)[C@@H]2C[C@@H](O)CN2C(=O)[C@@H](NC(=O)CN2CCN3c4cc(-c5ccccc5O)nnc4NCC3C2)C(C)(C)C)cc1 (single isomer, unassigned) [Example 1b] | 100 to 1000
